From patent publication US20220265694A1, “COMPOSITIONS AND METHODS FOR TREATING AN INFECTION” (CMPD LICENSING, LLC, priority 2016, published 2022)
Where two headings read alike, the source gives them in different places.

Key:
Haemophilus ducreyi = test: Expected efficacy of antibiotic agents; conditions: expected efficacy against Haemophilus ducreyi; Gram: neg
Vibrio cholerae = test: Expected efficacy of antibiotic agents; conditions: expected efficacy against Vibrio cholerae; Gram: neg
[1] = tested on: Acinetobacter calcoaceticus; test: Expected efficacy of antibiotic agents; conditions: expected efficacy against Acinetobacter calcoaceticus; Gram: neg
Providencia stuartii = test: Expected efficacy of antibiotic agents; conditions: expected efficacy against Providencia stuartii; Gram: neg
Neisseria meningitidis = test: Expected efficacy of antibiotic agents; conditions: expected efficacy against Neisseria meningitidis; Gram: neg
Bordetella pertussis = test: Expected efficacy of antibiotic agents; conditions: expected efficacy against Bordetella pertussis; Gram: neg
Klebsiella pneumoniae = test: Expected efficacy of antibiotic agents; conditions: expected efficacy against Klebsiella pneumoniae; Gram: neg
[2] = tested on: Corynebacterium urealyticum; test: Expected efficacy of antibiotic agents; conditions: expected efficacy against Corynebacterium urealyticum; Gram: pos
Proteus vulgaris = test: Expected efficacy of antibiotic agents; conditions: expected efficacy against Proteus vulgaris; Gram: neg
[3] = tested on: Methicillin resistant staph aureus (MRSA); test: Expected efficacy of antibiotic agents; conditions: expected efficacy against Methicillin resistant staph aureus (MRSA); Gram: pos
Salmonella typhi = test: Expected efficacy of antibiotic agents; conditions: expected efficacy against Salmonella typhi; Gram: neg
Klebsiella oxytoca = test: Expected efficacy of antibiotic agents; conditions: expected efficacy against Klebsiella oxytoca; Gram: neg
Citrobacter freundii = test: Expected efficacy of antibiotic agents; conditions: expected efficacy against Citrobacter freundii; Gram: neg
Morganella morganii = test: Expected efficacy of antibiotic agents; conditions: expected efficacy against Morganella morganii; Gram: neg
Acinetobacter baumannii = test: Expected efficacy of antibiotic agents; conditions: expected efficacy against Acinetobacter baumannii; Gram: neg
Enterobacter aerogenes = test: Expected efficacy of antibiotic agents; conditions: expected efficacy against Enterobacter aerogenes; Gram: neg
Moraxella catarrhalis = test: Expected efficacy of antibiotic agents; conditions: expected efficacy against Moraxella catarrhalis; Gram: neg
Streptococcus agalactiae = test: Expected efficacy of antibiotic agents; conditions: expected efficacy against Streptococcus agalactiae; Gram: pos
Acinetobacter lwoffii = test: Expected efficacy of antibiotic agents; conditions: expected efficacy against Acinetobacter lwoffii; Gram: neg
Shigella dysenteriae = test: Expected efficacy of antibiotic agents; conditions: expected efficacy against Shigella dysenteriae; Gram: neg
Streptococcus pyogenes = test: Expected efficacy of antibiotic agents; conditions: expected efficacy against Streptococcus pyogenes; Gram: pos
[4] = tested on: Haemophilus parainfluenzae; test: Expected efficacy of antibiotic agents; conditions: expected efficacy against Haemophilus parainfluenzae; Gram: neg
Citrobacter diversus = test: Expected efficacy of antibiotic agents; conditions: expected efficacy against Citrobacter diversus; Gram: neg
Chlamydia pneumoniae = test: Expected efficacy of antibiotic agents; conditions: expected efficacy against Chlamydia pneumoniae; Gram: n/a
Shigella flexneri = test: Expected efficacy of antibiotic agents; conditions: expected efficacy against Shigella flexneri; Gram: neg
Shigella boydii = test: Expected efficacy of antibiotic agents; conditions: expected efficacy against Shigella boydii; Gram: neg
[5] = tested on: Klebsiella (Calymmatobacterium); test: Expected efficacy of antibiotic agents; conditions: expected efficacy against Klebsiella (Calymmatobacterium); Gram: neg
Enterococcus faecium = test: Expected efficacy of antibiotic agents; conditions: expected efficacy against Enterococcus faecium; Gram: pos
Diphtheroids = test: Expected efficacy of antibiotic agents; conditions: expected efficacy against Diphtheroids; Gram: pos
Enterococcus faecalis = test: Expected efficacy of antibiotic agents; conditions: expected efficacy against Enterococcus faecalis; Gram: pos
Pseudomonas aeruginosa = test: Expected efficacy of antibiotic agents; conditions: expected efficacy against Pseudomonas aeruginosa; Gram: neg
Shigella sonnei = test: Expected efficacy of antibiotic agents; conditions: expected efficacy against Shigella sonnei; Gram: neg
Proteus mirabilis = test: Expected efficacy of antibiotic agents; conditions: expected efficacy against Proteus mirabilis; Gram: neg
[6] = tested on: Viridans group streptococci; test: Expected efficacy of antibiotic agents; conditions: expected efficacy against Viridans group streptococci; Gram: pos
[7] = tested on: Staphylococcus epidermidis; test: Expected efficacy of antibiotic agents; conditions: expected efficacy against Staphylococcus epidermidis; Gram: pos
Enterobacter cloacae = test: Expected efficacy of antibiotic agents; conditions: expected efficacy against Enterobacter cloacae; Gram: neg
Enterobacter sakazakii = test: Expected efficacy of antibiotic agents; conditions: expected efficacy against Enterobacter sakazakii; Gram: neg
Haemophilus influenzae = test: Expected efficacy of antibiotic agents; conditions: expected efficacy against Haemophilus influenzae; Gram: neg
Serratia marcescens = test: Expected efficacy of antibiotic agents; conditions: expected efficacy against Serratia marcescens; Gram: neg

`CN[C@H](CC(C)C)C(=O)N[C@H]1C(=O)N[C@@H](CC(N)=O)C(=O)N[C@H]2C(=O)N[C@H]3C(=O)N[C@H](C(=O)N[C@H](C(=O)O)c4cc(O)cc(O)c4-c4cc3ccc4O)[C@H](O)c3ccc(c(Cl)c3)Oc3cc2cc(c3O[C@@H]2O[C@H](CO)[C@@H](O)[C@H](O)[C@H]2O[C@H]2C[C@](C)(N)[C@H](O)[C@H](C)O2)Oc2ccc(cc2Cl)[C@H]1O` [Vancomycin] was tested, and the Efficacy (Haemophilus ducreyi) was “no”, the Efficacy (Vibrio cholerae) was “no” and the Efficacy [1] was “no”. For the same compound, the Efficacy (Providencia stuartii) was “no”, the Efficacy (Neisseria meningitidis) was “no” and the Efficacy (Bordetella pertussis) was “no”. The Efficacy (Klebsiella pneumoniae) was “no”, the Efficacy [2] was “yes” and the Efficacy (Proteus vulgaris) was “no”. For the same compound, the Efficacy [3] was “yes”, the Efficacy (Salmonella typhi) was “no” and the Efficacy (Klebsiella oxytoca) was “no”. For the same compound, the Efficacy (Rickettsiae) was “no”, the Efficacy (Citrobacter freundii) was “no” and the Efficacy (Morganella morganii) was “no”. The Efficacy (Acinetobacter baumannii) was “no”, the Efficacy (Enterobacter aerogenes) was “no” and the Efficacy (Moraxella catarrhalis) was “no”. For the same compound, the Efficacy (Streptococcus agalactiae) was “yes”, the Efficacy (Acinetobacter lwoffii) was “no” and the Efficacy (Shigella dysenteriae) was “no”. The Efficacy (Streptococcus pyogenes) was “yes”, the Efficacy (Legionella pneumophila) was “no” and the Efficacy [4] was “no”. The Efficacy (Citrobacter diversus) was “no”, the Efficacy (Chlamydia pneumoniae) was “no” and the Efficacy (Chlamydia psittaci) was “no”. For the same compound, the Efficacy (Shigella flexneri) was “no”, the Efficacy (Shigella boydii) was “no” and the Efficacy [5] was “no”. For the same compound, the Efficacy (Enterococcus faecium) was “yes, not VRE”, the Efficacy (Diphtheroids) was “yes” and the Efficacy (Enterococcus faecalis) was “yes”. The Efficacy (Pseudomonas aeruginosa) was “no”, the Efficacy (Shigella sonnei) was “no” and the Efficacy (Proteus mirabilis) was “no”. The Efficacy [6] was “yes”, the Efficacy [7] was “yes” and the Efficacy (Enterobacter cloacae) was “no”. The Efficacy (Francisella tularensis) was “no”, the Efficacy (Enterobacter sakazakii) was “no” and the Efficacy (Haemophilus influenzae) was “no”. For the same compound, the Efficacy (Serratia marcescens) was “no”.

`CO/N=C(\C(=O)N[C@@H]1C(=O)N2C(C(=O)O)=C(CSc3nc(=O)c(=O)[nH]n3C)CS[C@H]12)c1csc(N)n1` [Ceftriaxone] was tested, and the Efficacy (Haemophilus ducreyi) was “yes”, the Efficacy (Vibrio cholerae) was “no” and the Efficacy [1] was “no”. For the same compound, the Efficacy (Providencia stuartii) was “yes”, the Efficacy (Neisseria meningitidis) was “yes” and the Efficacy (Bordetella pertussis) was “no”. For the same compound, the Efficacy (Klebsiella pneumoniae) was “yes”, the Efficacy [2] was “no” and the Efficacy (Proteus vulgaris) was “yes”. The Efficacy [3] was “no”, the Efficacy (Salmonella typhi) was “yes” and the Efficacy (Klebsiella oxytoca) was “yes”. The Efficacy (Rickettsiae; expected efficacy against Rickettsiae, Gram: neg) was “no”, the Efficacy (Citrobacter freundii) was “yes” and the Efficacy (Morganella morganii) was “yes”. For the same compound, the Efficacy (Acinetobacter baumannii) was “no”, the Efficacy (Enterobacter aerogenes) was “yes” and the Efficacy (Moraxella catarrhalis) was “yes”. For the same compound, the Efficacy (Streptococcus agalactiae) was “yes”, the Efficacy (Acinetobacter lwoffii) was “no” and the Efficacy (Shigella dysenteriae) was “yes”. For the same compound, the Efficacy (Streptococcus pyogenes) was “yes”, the Efficacy (Legionella pneumophila; expected efficacy against Legionella pneumophila, Gram: neg) was “no” and the Efficacy [4] was “yes”. For the same compound, the Efficacy (Citrobacter diversus) was “yes”, the Efficacy (Chlamydia pneumoniae) was “no” and the Efficacy (Chlamydia psittaci; expected efficacy against Chlamydia psittaci, Gram: n/a) was “no”. The Efficacy (Shigella flexneri) was “yes”, the Efficacy (Shigella boydii) was “yes” and the Efficacy [5] was “yes”. The Efficacy (Enterococcus faecium) was “no”, the Efficacy (Diphtheroids) was “no” and the Efficacy (Enterococcus faecalis) was “no”. The Efficacy (Pseudomonas aeruginosa) was “no”, the Efficacy (Shigella sonnei) was “yes” and the Efficacy (Proteus mirabilis) was “yes”. For the same compound, the Efficacy [6] was “yes”, the Efficacy [7] was “yes” and the Efficacy (Enterobacter cloacae) was “yes”. The Efficacy (Francisella tularensis; expected efficacy against Francisella tularensis, Gram: neg) was “no”, the Efficacy (Enterobacter sakazakii) was “yes” and the Efficacy (Haemophilus influenzae) was “yes”. The Efficacy (Serratia marcescens) was “yes”.
